Data from patent US4139538A, “Oxazolidinones as therapeutic agents” (priority 1975, dated 1979).

Experiments:
[1] = maximum electric shock test (MES), protection against tonic extensor cramp; type: in vivo, mice
[2] = prolongation of sodium hexobarbitone narcosis; type: in vivo, mice; details: for ED (200%): Mus musculus, po, 1 h, mice, sodium hexobarbitone 70 mg/kg i.v., 60 minutes after p.o. administration, extension of the narcosis period to 200%, read-out: Prolongation of narcosis ED200; for effectiveness in prolonging sleep compared with known hypnotics and tranquillizers: versus e.g. chlorzoxazone and meprobamate
[3] = minimum pentetrazole shock test (min PS), protection against clonic cramp; type: in vivo, mice; details: Mus musculus, po, 1 h, read-out: Anticonvulsive activity Min PS ED50;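 note: albino NMRI mice, oral dosing, clonic seizures provoked 60 min later by subcutaneous pentetrazole 70 mg/kg, ED50 is the dose protecting half of animals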
in vivo = details: mouse, po
[4] = paralysis: loss of the postural and balancing reflexes (lying down); type: in vivo, mice; details: for ED50: Mus musculus, po, read-out: Paralysis ED50; for effectiveness in relaxing the muscle system compared with known hypnotics and tranquillizers: versus e.g. chlorzoxazone and meprobamate
[5] = administration of a tablet to a human suffering from motor restlessness, with electroencephalogram; type: in vivo; details: 50 mg
Method: A tablet produced in accordance with Example 75 consisting of 50 mg. of the active compound according to Example 43 and the equivalent amount of the other ingredients was administered to a human suffering from motor restlessness.

[6] = Mus musculus, po, 1 h; read-out: Anticonvulsive activity MES ED50
[7] = Mus musculus, po, 1 h, read-out: Anticonvulsive activity MES ED50
[8] = mice, 70 mg/kg pentetrazole s.c., 60 minutes after p.o. administration, protection in 50% of the animals
[9] = MES and min PS test models; versus trimethadione and dipropyl acetate
[10] = mice, p.o., lying down in 50% of the animals

Structure (SMILES)	ED50 [1, 6]	ED (200%) [2]	ED50 [3]	ED50 [1, 7]	LD50 at 168 h (in vivo)	ED50 [4]	ED50 [3, 8]	anticonvulsive effect compared with conventional antiepileptics [1, 9]	ED50 [4, 10]	effectiveness in prolonging sleep compared with known hypnotics and tranquillizers [2]	effectiveness in relaxing the muscle system compared with known hypnotics and tranquillizers [4]	electroencephalogram findings [5]	indications of a shallow sleep phase in the electroencephalogram ([5]; 5 hours after administration)	effect reported by the patient ([5]; within a period of several minutes)
O=C1NC(=O)C(c2ccccc2)(c2ccccc2)N1 [Diphenylhydantoin, reference compound]	10 mg/kg	50 mg/kg												
CCCC(CCC)C(=O)O [Dipropylacetate, reference compound]			450 mg/kg	185 mg/kg	> 1000 mg/kg	1000 mg/kg								
O=C1NC(C(O)c2ccc(Cl)cc2)CO1 (stereo not drawn) [Example 4, 4-(α-Hydroxy-p-chlorobenzyl)-oxazolidin-2-one]	125 mg/kg	160 mg/kg			> 1000 mg/kg		140 mg/kg	superior	> 1000 mg/kg					
CC(O)C1NC(=O)OC1c1ccccc1 (stereo not shown) [Example 5, 4-[1-(1-Hydroxyethyl)]-5-phenyl oxazolidin-2-one]	75 mg/kg	510 mg/kg			> 1000 mg/kg		150 mg/kg	superior	> 1000 mg/kg					
CC1(CO)NC(=O)OC1(C)c1ccccc1 (stereo not shown) [Example 6]	165 mg/kg	1000 mg/kg			> 100 mg/kg		> 464 mg/kg		1000 mg/kg					
CCC(O)(c1ccccc1)C1NC(=O)OC1C (stereo not shown) [Example 18, 4-[-1-(1-Hydroxy-1-phenyl)-propyl]-5-methyl oxazolidin-2-one]	200 mg/kg	450 mg/kg			> 1000 mg/kg		200 mg/kg		> 1000 mg/kg					
C=CCC(O)(CC=C)C1NC(=O)OC1C (stereo not shown) [Example 34]	150 mg/kg	90 mg/kg			> 1000 mg/kg		> 464 mg/kg		1000 mg/kg					
CC(C)(O)C1NC(=O)OC1c1ccccc1 (stereo not shown) [Example 37]	59 mg/kg	650 mg/kg			> 1000 mg/kg		130 mg/kg	superior	1000 mg/kg					
CN1C(=O)OC(c2ccccc2)C1C(C)(C)O (stereo not shown) [Example 38]	165 mg/kg	115 mg/kg			> 1000 mg/kg		640 mg/kg		464 mg/kg	distinctly more effective	distinctly more effective			
C=CCN1C(=O)OC(c2ccccc2)C1C(C)(C)O (stereo not shown) [Example 39]	145 mg/kg	130 mg/kg			1000 mg/kg		> 464 mg/kg		> 1000 mg/kg					
CCC(O)(CC)C1NC(=O)OC1c1ccccc1 (stereo not shown) [Example 40]	75 mg/kg	165 mg/kg			> 1000 mg/kg		430 mg/kg		1000 mg/kg					
CCCC(O)(CCC)C1NC(=O)OC1c1ccccc1 (stereo not shown) [Example 41]	147 mg/kg	65 mg/kg			> 1000 mg/kg		> 464 mg/kg		> 1000 mg/kg					
C=CCC(O)(CC=C)C1NC(=O)OC1c1ccccc1 (stereo not shown) [Example 43]	25 mg/kg	15 mg/kg			1000 mg/kg		> 464 mg/kg		225 mg/kg	distinctly more effective	distinctly more effective	characteristic signs of a sedation with a decrease of effectiveness in the alpha and beta band and a change of the range of main activity to the lower frequency range	clearly increased	muscle relaxing, tiring and ataraktic sedation
CCCC(O)(CCC)C1COC(=O)N1 (stereo not shown) [Example 45]	120 mg/kg	210 mg/kg			> 1000 mg/kg		430 mg/kg		1000 mg/kg					
O=C1NC(C(O)(c2ccccc2)c2cccc(Cl)c2)CO1 (stereo not shown) [Example 49]	200 mg/kg	90 mg/kg			> 1000 mg/kg		> 464 mg/kg		> 1000 mg/kg					
CCC(O)(c1ccccc1)C1COC(=O)N1 (stereo not shown) [Example 54]	115 mg/kg	50 mg/kg			> 1000 mg/kg		85 mg/kg	superior	800 mg/kg	distinctly more effective	distinctly more effective			
C=CCC(O)(c1ccccc1)C1COC(=O)N1 (stereo not shown) [Example 58]	200 mg/kg	300 mg/kg			> 1000 mg/kg		300 mg/kg		1000 mg/kg					
CC(O)(c1ccc(Cl)cc1)C1COC(=O)N1 (stereo not shown) [Example 59]	165 mg/kg	110 mg/kg			> 1000 mg/kg		> 464 mg/kg		> 1000 mg/kg					
CCC(O)(c1ccc(Cl)cc1)C1COC(=O)N1 (stereo not shown) [Example 60]	175 mg/kg	70 mg/kg			> 1000 mg/kg		> 464 mg/kg		1000 mg/kg					
CCC(O)(c1ccccc1)C1COC(=O)N1C (stereo not shown) [Example 64]	300 mg/kg	110 mg/kg			800 mg/kg		> 464 mg/kg		650 mg/kg	distinctly more effective	distinctly more effective			
CCCC(O)(c1ccccc1)C1COC(=O)N1 (stereo not shown) [Example 65]	170 mg/kg	155 mg/kg			> 1000 mg/kg		175 mg/kg		> 1000 mg/kg					
CC1(c2ccccc2)OC(=O)NC1CCl (stereo not shown) [Example 67, 4-Chloromethyl-5-methyl-5-phenyl oxazolidin-2-one]			55 mg/kg	93 mg/kg	> 1000 mg/kg	1000 mg/kg		superior						
O=C1NC(CCl)C(c2ccccc2)O1 (stereo not shown) [Example 72]			540 mg/kg	75 mg/kg	> 1000 mg/kg	> 1000 mg/kg								
O=C1NC(CBr)C(c2ccccc2)O1 (stereo not shown) [Example 73]			430 mg/kg	65 mg/kg	> 1000 mg/kg	> 1000 mg/kg								
CCCC(C)(COC(N)=O)COC(N)=O [Meprobamate, reference compound]			150 mg/kg	115 mg/kg	1000 mg/kg	800 mg/kg								
CCC1(c2ccccc2)C(=O)NC(=O)NC1=O [Na-phenocarbital, reference compound]			30 mg/kg	11 mg/kg	320 mg/kg	150 mg/kg								
CN1C(=O)OC(C)(C)C1=O [Trimethadione, reference compound]	450 mg/kg	660 mg/kg			> 1000 mg/kg		240 mg/kg		> 1000 mg/kg					
